{
  "source": "paper PMC6120666",
  "about": "(The EMBO Journal, 2018)",
  "assay_in_all_cases": "Drug affinity chromatography with c-ponatinib and LC-MS/MS (ponatinib interactome)",
  "assay_type_in_all_cases": "binding",
  "key": {"[1]": {"molecular_target": "T1, proteins of U2OS cell lysate (Homo sapiens, UniProt O75935)", "T1 construct": "Proteins enriched by c-ponatinib from U2OS cell lysate; endogenous in cells; host or cells: U2OS cell lysate", "T1 sequence (O75935 whole entry)": "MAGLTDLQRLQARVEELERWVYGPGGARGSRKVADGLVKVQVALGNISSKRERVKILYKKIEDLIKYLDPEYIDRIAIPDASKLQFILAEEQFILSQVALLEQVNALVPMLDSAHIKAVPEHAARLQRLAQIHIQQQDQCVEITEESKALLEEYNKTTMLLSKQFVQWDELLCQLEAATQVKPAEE", "details": "DCTN3, Dynactin subunit 3", "procedure,_shortened": "(§1)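 Proteins were identified by nano-UPLC–MS/MS after elution with formic acid and trypsin digestion. They were captured from U2OS lysate (2 mg protein per pulldown, NP-40 buffer) on amine-coupled NHS beads during a 2 h incubation at 4 °C.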"}, "[2]": {"molecular_target": "T2, proteins of U2OS cell lysate (Homo sapiens, UniProt P00403)", "T2 construct": "Proteins enriched by c-ponatinib from U2OS cell lysate; endogenous in cells; host or cells: U2OS cell lysate", "T2 sequence (P00403 whole entry)": "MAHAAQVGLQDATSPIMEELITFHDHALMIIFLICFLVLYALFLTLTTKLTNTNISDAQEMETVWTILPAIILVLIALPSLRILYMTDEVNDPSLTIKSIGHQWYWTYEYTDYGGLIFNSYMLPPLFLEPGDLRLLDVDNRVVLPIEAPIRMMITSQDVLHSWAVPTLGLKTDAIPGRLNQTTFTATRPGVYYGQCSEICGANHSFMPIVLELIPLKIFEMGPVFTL", "details": "MT-CO2, Cytochrome c oxidase subunit 2", "procedure,_shortened": "as §1"}, "[3]": {"molecular_target": "T3, proteins of U2OS cell lysate (Homo sapiens, UniProt P08195)", "T3 construct": "Proteins enriched by c-ponatinib from U2OS cell lysate; endogenous in cells; host or cells: U2OS cell lysate", "T3 sequence (P08195 102-630)": "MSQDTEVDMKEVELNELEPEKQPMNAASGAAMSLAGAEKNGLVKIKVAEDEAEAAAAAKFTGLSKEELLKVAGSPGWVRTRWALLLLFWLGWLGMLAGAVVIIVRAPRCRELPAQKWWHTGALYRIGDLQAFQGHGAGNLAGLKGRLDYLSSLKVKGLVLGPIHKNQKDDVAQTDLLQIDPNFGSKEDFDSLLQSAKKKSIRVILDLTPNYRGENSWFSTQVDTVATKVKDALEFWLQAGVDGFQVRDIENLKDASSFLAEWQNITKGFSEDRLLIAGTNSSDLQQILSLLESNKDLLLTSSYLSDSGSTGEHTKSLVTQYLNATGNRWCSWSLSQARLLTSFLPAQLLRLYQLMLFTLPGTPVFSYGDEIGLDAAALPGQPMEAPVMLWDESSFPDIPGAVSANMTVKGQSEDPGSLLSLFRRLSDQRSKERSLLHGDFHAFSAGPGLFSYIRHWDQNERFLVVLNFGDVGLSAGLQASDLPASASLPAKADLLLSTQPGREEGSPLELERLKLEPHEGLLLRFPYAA", "details": "SLC3A2, 4F2 cell-surface antigen heavy chain", "procedure,_shortened": "as §1"}, "[4]": {"molecular_target": "T4, proteins of U2OS cell lysate (Homo sapiens, UniProt P09382)", "T4 construct": "Proteins enriched by c-ponatinib from U2OS cell lysate; endogenous in cells; host or cells: U2OS cell lysate", "details": "LGALS1, Galectin-1", "procedure,_shortened": "as §1"}, "[5]": {"molecular_target": "T5, proteins of U2OS cell lysate (Homo sapiens, UniProt P16083)", "T5 construct": "Proteins enriched by c-ponatinib from U2OS cell lysate; endogenous in cells; host or cells: U2OS cell lysate", "T5 sequence (P16083 whole entry)": "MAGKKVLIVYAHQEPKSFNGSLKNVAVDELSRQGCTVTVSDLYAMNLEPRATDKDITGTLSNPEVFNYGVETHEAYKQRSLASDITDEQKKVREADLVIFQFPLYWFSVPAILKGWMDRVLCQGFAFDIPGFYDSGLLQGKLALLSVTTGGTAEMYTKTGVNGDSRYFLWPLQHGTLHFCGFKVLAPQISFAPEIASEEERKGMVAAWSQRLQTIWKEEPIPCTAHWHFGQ", "details": "NQO2, Ribosyldihydronicotinamide dehydrogenase [quinone]", "procedure,_shortened": "as §1"}, "[6]": {"molecular_target": "T6, proteins of U2OS cell lysate (Homo sapiens, UniProt P35232)", "T6 construct": "Proteins enriched by c-ponatinib from U2OS cell lysate; endogenous in cells; host or cells: U2OS cell lysate", "details": "PHB, Prohibitin", "procedure,_shortened": "as §1"}, "[7]": {"molecular_target": "T7, proteins of U2OS cell lysate (Homo sapiens, UniProt P42684)", "T7 construct": "Proteins enriched by c-ponatinib from U2OS cell lysate; endogenous in cells; host or cells: U2OS cell lysate", "details": "ABL2, Abelson tyrosine-protein kinase 2", "procedure,_shortened": "as §1"}, "[8]": {"molecular_target": "T8, proteins of U2OS cell lysate (Homo sapiens, UniProt P49336)", "T8 construct": "Proteins enriched by c-ponatinib from U2OS cell lysate; endogenous in cells; host or cells: U2OS cell lysate", "T8 sequence (P49336 whole entry)": "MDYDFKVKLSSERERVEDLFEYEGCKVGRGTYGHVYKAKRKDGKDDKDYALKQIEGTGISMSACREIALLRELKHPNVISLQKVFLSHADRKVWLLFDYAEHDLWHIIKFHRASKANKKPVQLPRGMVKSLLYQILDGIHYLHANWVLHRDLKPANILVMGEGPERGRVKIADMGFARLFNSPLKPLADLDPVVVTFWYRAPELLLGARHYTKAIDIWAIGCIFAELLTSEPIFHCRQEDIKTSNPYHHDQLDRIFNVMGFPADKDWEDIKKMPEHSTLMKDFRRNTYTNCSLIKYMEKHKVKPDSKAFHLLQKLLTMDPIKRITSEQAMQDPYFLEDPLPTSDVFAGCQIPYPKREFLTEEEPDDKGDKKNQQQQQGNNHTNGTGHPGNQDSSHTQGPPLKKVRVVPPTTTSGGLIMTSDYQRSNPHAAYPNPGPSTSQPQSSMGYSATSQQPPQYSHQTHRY", "details": "CDK8, Cyclin-dependent kinase 8", "procedure,_shortened": "as §1"}, "[9]": {"molecular_target": "T9, proteins of U2OS cell lysate (Homo sapiens, UniProt P55060)", "T9 construct": "Proteins enriched by c-ponatinib from U2OS cell lysate; endogenous in cells; host or cells: U2OS cell lysate", "details": "CSE1L, Exportin-2", "procedure,_shortened": "as §1"}, "[10]": {"molecular_target": "T10, proteins of U2OS cell lysate (Homo sapiens, UniProt P60174)", "T10 construct": "Proteins enriched by c-ponatinib from U2OS cell lysate; endogenous in cells; host or cells: U2OS cell lysate", "T10 sequence (P60174 whole entry)": "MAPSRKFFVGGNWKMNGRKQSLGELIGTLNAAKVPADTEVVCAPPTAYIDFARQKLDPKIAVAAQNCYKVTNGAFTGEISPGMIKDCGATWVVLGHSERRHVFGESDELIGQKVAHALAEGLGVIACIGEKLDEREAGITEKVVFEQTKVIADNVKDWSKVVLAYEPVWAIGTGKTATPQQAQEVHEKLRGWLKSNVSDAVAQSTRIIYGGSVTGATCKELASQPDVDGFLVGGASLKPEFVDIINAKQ", "details": "TPI1, Triosephosphate isomerase", "procedure,_shortened": "as §1"}, "[11]": {"molecular_target": "T11, proteins of U2OS cell lysate (Homo sapiens, UniProt P62241)", "T11 construct": "Proteins enriched by c-ponatinib from U2OS cell lysate; endogenous in cells; host or cells: U2OS cell lysate", "details": "RPS8, 40S ribosomal protein S8", "procedure,_shortened": "as §1"}, "[12]": {"molecular_target": "T12, proteins of U2OS cell lysate (Homo sapiens, UniProt P62491)", "T12 construct": "Proteins enriched by c-ponatinib from U2OS cell lysate; endogenous in cells; host or cells: U2OS cell lysate", "T12 sequence (P62491 whole entry)": "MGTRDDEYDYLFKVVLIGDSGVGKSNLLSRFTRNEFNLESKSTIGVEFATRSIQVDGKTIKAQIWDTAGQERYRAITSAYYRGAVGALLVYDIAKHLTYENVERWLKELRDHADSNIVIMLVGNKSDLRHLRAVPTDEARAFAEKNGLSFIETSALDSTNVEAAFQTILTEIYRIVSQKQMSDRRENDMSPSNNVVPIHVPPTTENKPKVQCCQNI", "details": "RAB11A;RAB11B, Ras-related protein Rab-11A", "procedure,_shortened": "as §1"}, "[13]": {"molecular_target": "T13, proteins of U2OS cell lysate (Homo sapiens, UniProt Q02218)", "T13 construct": "Proteins enriched by c-ponatinib from U2OS cell lysate; endogenous in cells; host or cells: U2OS cell lysate", "T13 sequence (Q02218 41-1023)": "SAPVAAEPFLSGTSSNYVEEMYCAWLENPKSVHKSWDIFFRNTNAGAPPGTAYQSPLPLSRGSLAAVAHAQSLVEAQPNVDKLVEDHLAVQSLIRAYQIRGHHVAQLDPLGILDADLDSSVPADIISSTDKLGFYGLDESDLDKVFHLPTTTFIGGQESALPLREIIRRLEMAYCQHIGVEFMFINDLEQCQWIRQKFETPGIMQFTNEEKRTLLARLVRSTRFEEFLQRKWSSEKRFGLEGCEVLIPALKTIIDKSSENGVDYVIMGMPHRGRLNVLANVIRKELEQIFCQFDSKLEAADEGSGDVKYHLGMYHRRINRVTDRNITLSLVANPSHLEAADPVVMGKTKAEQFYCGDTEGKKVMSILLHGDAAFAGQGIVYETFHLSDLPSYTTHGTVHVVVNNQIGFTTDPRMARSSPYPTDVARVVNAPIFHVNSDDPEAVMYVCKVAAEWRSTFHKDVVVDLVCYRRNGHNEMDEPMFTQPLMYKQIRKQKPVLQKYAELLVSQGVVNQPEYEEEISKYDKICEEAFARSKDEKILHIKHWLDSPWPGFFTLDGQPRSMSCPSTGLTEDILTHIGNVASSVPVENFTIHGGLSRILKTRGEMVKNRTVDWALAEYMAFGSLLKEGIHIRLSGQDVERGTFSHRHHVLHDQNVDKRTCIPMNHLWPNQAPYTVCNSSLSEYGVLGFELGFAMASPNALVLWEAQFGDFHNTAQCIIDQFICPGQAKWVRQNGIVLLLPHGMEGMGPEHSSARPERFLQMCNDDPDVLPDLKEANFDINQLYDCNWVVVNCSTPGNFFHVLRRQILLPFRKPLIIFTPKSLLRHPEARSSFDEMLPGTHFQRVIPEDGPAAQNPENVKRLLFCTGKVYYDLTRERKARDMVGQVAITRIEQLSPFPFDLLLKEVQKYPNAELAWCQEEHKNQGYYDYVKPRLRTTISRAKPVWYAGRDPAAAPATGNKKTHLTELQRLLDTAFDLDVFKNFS", "details": "OGDH;OGDHL, 2-oxoglutarate dehydrogenase, mitochondrial", "procedure,_shortened": "as §1"}, "[14]": {"molecular_target": "T14, proteins of U2OS cell lysate (Homo sapiens, UniProt Q14203)", "T14 construct": "Proteins enriched by c-ponatinib from U2OS cell lysate; endogenous in cells; host or cells: U2OS cell lysate", "details": "DCTN1, Dynactin subunit 1", "procedure,_shortened": "as §1"}, "[15]": {"molecular_target": "T15, proteins of U2OS cell lysate (Homo sapiens, UniProt Q14498)", "T15 construct": "Proteins enriched by c-ponatinib from U2OS cell lysate; endogenous in cells; host or cells: U2OS cell lysate", "T15 sequence (Q14498 whole entry)": "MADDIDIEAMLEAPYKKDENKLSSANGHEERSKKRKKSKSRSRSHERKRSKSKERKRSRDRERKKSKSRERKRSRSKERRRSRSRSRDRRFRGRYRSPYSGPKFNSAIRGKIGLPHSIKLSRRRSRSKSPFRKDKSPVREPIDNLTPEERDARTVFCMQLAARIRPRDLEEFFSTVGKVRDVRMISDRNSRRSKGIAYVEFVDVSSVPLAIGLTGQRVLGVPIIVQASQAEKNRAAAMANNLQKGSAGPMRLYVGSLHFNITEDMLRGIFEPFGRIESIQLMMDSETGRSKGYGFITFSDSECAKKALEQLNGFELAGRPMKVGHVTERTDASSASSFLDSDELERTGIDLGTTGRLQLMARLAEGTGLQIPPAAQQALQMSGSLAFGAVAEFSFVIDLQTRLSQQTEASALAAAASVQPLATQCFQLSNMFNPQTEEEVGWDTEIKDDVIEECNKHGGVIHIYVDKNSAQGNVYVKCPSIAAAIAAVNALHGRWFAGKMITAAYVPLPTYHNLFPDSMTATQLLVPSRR", "details": "RBM39, RNA-binding protein 39", "procedure,_shortened": "as §1"}, "[16]": {"molecular_target": "T16, proteins of U2OS cell lysate (Homo sapiens, UniProt Q92616)", "T16 construct": "Proteins enriched by c-ponatinib from U2OS cell lysate; endogenous in cells; host or cells: U2OS cell lysate", "details": "GCN1L1, Translational activator GCN1", "procedure,_shortened": "as §1"}, "[17]": {"molecular_target": "T17, proteins of U2OS cell lysate (Homo sapiens, UniProt Q96MW5)", "T17 construct": "Proteins enriched by c-ponatinib from U2OS cell lysate; endogenous in cells; host or cells: U2OS cell lysate", "T17 sequence (Q96MW5 whole entry)": "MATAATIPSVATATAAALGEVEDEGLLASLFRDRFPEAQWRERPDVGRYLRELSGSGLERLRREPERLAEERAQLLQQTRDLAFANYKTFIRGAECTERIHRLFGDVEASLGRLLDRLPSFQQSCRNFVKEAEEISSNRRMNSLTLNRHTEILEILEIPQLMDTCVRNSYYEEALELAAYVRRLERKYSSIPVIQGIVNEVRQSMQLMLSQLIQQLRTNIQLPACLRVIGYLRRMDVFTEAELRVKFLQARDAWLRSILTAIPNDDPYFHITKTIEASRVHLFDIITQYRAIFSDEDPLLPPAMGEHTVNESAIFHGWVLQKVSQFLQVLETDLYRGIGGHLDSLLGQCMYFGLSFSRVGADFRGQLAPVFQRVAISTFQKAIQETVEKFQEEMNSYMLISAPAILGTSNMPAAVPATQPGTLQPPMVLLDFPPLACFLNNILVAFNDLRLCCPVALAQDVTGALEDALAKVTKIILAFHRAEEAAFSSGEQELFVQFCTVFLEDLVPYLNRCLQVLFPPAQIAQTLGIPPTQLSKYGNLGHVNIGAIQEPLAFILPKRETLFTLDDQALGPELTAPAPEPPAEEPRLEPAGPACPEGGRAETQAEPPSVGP", "details": "COG8, Conserved oligomeric Golgi complex subunit 8", "procedure,_shortened": "as §1"}, "[18]": {"molecular_target": "T18, proteins of U2OS cell lysate (Homo sapiens, UniProt Q9UFG5)", "T18 construct": "Proteins enriched by c-ponatinib from U2OS cell lysate; endogenous in cells; host or cells: U2OS cell lysate", "T18 sequence (Q9UFG5 whole entry)": "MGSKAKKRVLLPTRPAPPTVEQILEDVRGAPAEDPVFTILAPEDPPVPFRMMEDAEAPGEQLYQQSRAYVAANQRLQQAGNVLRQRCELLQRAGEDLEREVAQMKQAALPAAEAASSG", "details": "C19orf25, UPF0449 protein C19orf25", "procedure,_shortened": "as §1"}, "[19]": {"molecular_target": "T19, proteins of U2OS cell lysate (Homo sapiens, UniProt Q9Y6G9)", "T19 construct": "Proteins enriched by c-ponatinib from U2OS cell lysate; endogenous in cells; host or cells: U2OS cell lysate", "T19 sequence (Q9Y6G9 whole entry)": "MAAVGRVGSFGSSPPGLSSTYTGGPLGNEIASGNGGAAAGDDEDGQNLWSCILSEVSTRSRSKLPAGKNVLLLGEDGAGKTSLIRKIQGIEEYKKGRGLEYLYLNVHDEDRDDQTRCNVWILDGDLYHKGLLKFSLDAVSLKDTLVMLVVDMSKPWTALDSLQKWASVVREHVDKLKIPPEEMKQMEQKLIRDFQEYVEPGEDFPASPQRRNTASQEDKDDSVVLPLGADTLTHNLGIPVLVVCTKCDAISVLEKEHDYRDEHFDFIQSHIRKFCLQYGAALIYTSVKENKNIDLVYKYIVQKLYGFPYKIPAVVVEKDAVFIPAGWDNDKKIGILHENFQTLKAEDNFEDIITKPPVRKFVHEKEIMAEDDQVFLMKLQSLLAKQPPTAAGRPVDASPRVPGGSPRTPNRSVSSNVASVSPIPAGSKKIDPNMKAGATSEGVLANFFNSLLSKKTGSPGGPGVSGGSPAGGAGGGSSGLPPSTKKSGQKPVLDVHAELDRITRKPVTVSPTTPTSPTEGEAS", "details": "DYNC1LI1, Cytoplasmic dynein 1 light intermediate chain 1", "procedure,_shortened": "as §1"}},
  "data": [
    {"smiles": "Cc1ccc(C(=O)Nc2ccc(CN3CCN(C)CC3)c(C(F)(F)F)c2)cc1C#Cc1cnc2cccnn12", "note": "[PON]", "values": [
      {"measurement": "Average LFQ PON_WT", "setting": "[1]", "value": 20.8844},
      {"measurement": "Average LFQ PON_WT", "setting": "[2]", "value": 20.775},
      {"measurement": "Average LFQ PON_WT", "setting": "[3]", "value": 18.7801},
      {"measurement": "Average LFQ PON_WT", "setting": "[4]", "value": 23.8412},
      {"measurement": "Average LFQ PON_WT", "setting": "[5]", "value": 24.6177},
      {"measurement": "Average LFQ PON_WT", "setting": "[6]", "value": 29.1615},
      {"measurement": "Average LFQ PON_WT", "setting": "[7]", "value": 26.1742},
      {"measurement": "Average LFQ PON_WT", "setting": "[8]", "value": 23.7078},
      {"measurement": "Average LFQ PON_WT", "setting": "[9]", "value": 25.3839},
      {"measurement": "Average LFQ PON_WT", "setting": "[10]", "value": 20.2344},
      {"measurement": "Average LFQ PON_WT", "setting": "[11]", "value": 19.8524},
      {"measurement": "Average LFQ PON_WT", "setting": "[12]", "value": 22.3634},
      {"measurement": "Average LFQ PON_WT", "setting": "[13]", "value": 22.0277},
      {"measurement": "Average LFQ PON_WT", "setting": "[14]", "value": 21.0359},
      {"measurement": "Average LFQ PON_WT", "setting": "[15]", "value": 20.4989},
      {"measurement": "Average LFQ PON_WT", "setting": "[16]", "value": 23.5357},
      {"measurement": "Average LFQ PON_WT", "setting": "[17]", "value": 20.9378},
      {"measurement": "Average LFQ PON_WT", "setting": "[18]", "value": 20.1092},
      {"measurement": "Average LFQ PON_WT", "setting": "[19]", "value": 23.2986}
    ]}
  ]
}
